Assay results reported in the supplement of paper PMC12317010.
Counter-ions that a name gives are not always drawn.

Assay: collision cross section in nitrogen (drift tube, single-field); higher = larger gas-phase ion size
[1] = ion type: [M-H], ion source: ESI, ion mode: Negative
[2] = ion type: [M+H], ion source: APCI, ion mode: Positive
[3] = ion type: [M+H], ion source: ESI, ion mode: Positive
[4] = ion type: [M+Na], ion source: ESI, ion mode: Positive
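Note: chemical standards at 10 µM analysed by drift tube IMS-QTOF MS in about 3.95 torr nitrogen, mean of duplicate injections differing ≤1%, mass error below 10 ppm.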

Oc1ccc(-c2ccccc2)cc1 [4-Phenylphenol]
collision cross section in nitrogen [1]: 139.3 Å²

O=c1nn[nH]c2ccccc12 [1,2,3-Benzotriazin-4(1H)-one]
collision cross section in nitrogen [1]: 126.4 Å²

O=S(=O)(O)c1ccccc1 [Benzenesulfonic acid]
collision cross section in nitrogen [1]: 127.2 Å²

O=C(O)C[C@H](O)C[C@H](O)/C=C/c1c(C2CC2)nc2ccccc2c1-c1ccc(F)cc1 [Pitavastatin calcium]
collision cross section in nitrogen [2]: 202.3 Å² | collision cross section in nitrogen [3]: 203.2 Å² | collision cross section in nitrogen [4]: 196.7 Å² | collision cross section in nitrogen [1]: 207.8 Å²

Cc1ncc[nH]1 [2-Methylimidazole]
collision cross section in nitrogen [1]: 112.8 Å²

CCN(CC)c1ccc(C(=C2C=CC(=[N+](CC)CC)C=C2)c2ccc(S(=O)(=O)O)cc2S(=O)(=O)[O-])cc1 [C.I. Acid Blue 1, sodium salt]
collision cross section in nitrogen [3]: 243 Å² | collision cross section in nitrogen [4]: 255.4 Å²

CCCCOP(=O)(O)OCCCC [Phosphoric acid, dibutyl ester]
collision cross section in nitrogen [1]: 151.3 Å²

O=c1c2ccccc2oc2ccccc12 [Xanthone]
collision cross section in nitrogen [2]: 135.2 Å²

NCCOCCOCCN [2,2'-[Ethane-1,2-diylbis(oxy)]diethanamine]
collision cross section in nitrogen [4]: 132.4 Å²

NCCOS(=O)(=O)O [2-Aminoethyl hydrogen sulfate]
collision cross section in nitrogen [1]: 121.6 Å²

CNC(=O)Oc1cc(C)cc(C(C)C)c1 [Promecarb]
collision cross section in nitrogen [4]: 157.5 Å²

CN1CCN(c2ccccc2/C=C2\SCCN(c3ccc(Cl)c(Cl)c3)C2=O)CC1 [Elzasonan]
collision cross section in nitrogen [2]: 204 Å² | collision cross section in nitrogen [3]: 203.8 Å² | collision cross section in nitrogen [4]: 211.4 Å²

CC1=NN(c2ccc(S(=O)(=O)O)cc2)C(=O)C1
collision cross section in nitrogen [3]: 162.7 Å² | collision cross section in nitrogen [1]: 159.1 Å²

C=CC(=O)NC(C)(C)CS(=O)(=O)O [2-Acrylamido-2-methyl-1-propanesulfonic acid]
collision cross section in nitrogen [1]: 141.5 Å²

O=C(O)c1cn(-c2ccc(F)cc2)c2cc(N3CCNCC3)c(F)cc2c1=O [Sarafloxacin]
collision cross section in nitrogen [2]: 188.2 Å² | collision cross section in nitrogen [3]: 188.3 Å² | collision cross section in nitrogen [4]: 204.8 Å²

CCC(CC)Nc1ccc(C)c(C)c1 [N-(1-Ethylpropyl)-3,4-xylidine]
collision cross section in nitrogen [4]: 151.1 Å²

CS(=O)(=O)c1ccc(C2=C(c3ccccc3)C(=O)OC2)cc1 [Rofecoxib]
collision cross section in nitrogen [1]: 174.4 Å²

O=C(Nc1ccccc1)Nc1ccnc(Cl)c1 [Forchlorfenuron]
collision cross section in nitrogen [2]: 156.5 Å² | collision cross section in nitrogen [3]: 156.9 Å² | collision cross section in nitrogen [1]: 155.2 Å²

O=C1c2ccccc2C(=O)C1c1ccc2ccccc2n1 [D & C Yellow 11]
collision cross section in nitrogen [3]: 158.6 Å² | collision cross section in nitrogen [1]: 163.8 Å²

CCN(CC)c1ccc(C(=O)c2ccccc2C(=O)O)c(O)c1 [2-[4-(Diethylamino)-2-hydroxybenzoyl]benzoic acid]
collision cross section in nitrogen [2]: 177.2 Å² | collision cross section in nitrogen [3]: 177.1 Å² | collision cross section in nitrogen [4]: 187.1 Å² | collision cross section in nitrogen [1]: 179.8 Å²

Cc1cccc(C)c1NC(=O)CN1CCCC1=O [Nefiracetam]
collision cross section in nitrogen [4]: 167.3 Å²

CC(=O)CC(=O)Nc1ccc(C)cc1C [N-(2,4-Dimethylphenyl)-3-oxobutanamide]
collision cross section in nitrogen [2]: 147.7 Å² | collision cross section in nitrogen [4]: 160.6 Å² | collision cross section in nitrogen [1]: 148.8 Å²

CCCCC(CC)COC(=O)CC(C(=O)OCC(CC)CCCC)S(=O)(=O)O (configuration not stated) [Docusate sodium]
collision cross section in nitrogen [1]: 206.1 Å²

O=C1C=CC(=O)N1c1ccccc1 [1-Phenyl-1H-pyrrole-2,5-dione]
collision cross section in nitrogen [3]: 135.3 Å²

Cc1ccc(N)cc1N [2,4-Diaminotoluene]
collision cross section in nitrogen [3]: 122.3 Å²

CC1(c2ccc(Oc3ccccc3)cc2)OC(=O)N(Nc2ccccc2)C1=O (configuration not stated) [Famoxadone]
collision cross section in nitrogen [4]: 210.6 Å² | collision cross section in nitrogen [1]: 195.7 Å²

c1ccc(Nc2ccc3ccccc3c2)cc1 [N-Phenyl-2-naphthylamine]
collision cross section in nitrogen [2]: 150 Å² | collision cross section in nitrogen [3]: 151.3 Å² | collision cross section in nitrogen (ion type: [M+], ion source: APCI, ion mode: Positive): 149.2 Å²

O=C(Oc1ccccc1)c1ccccc1O [Phenyl salicylate]
collision cross section in nitrogen [1]: 145.7 Å²

Cc1ccc(C)c(S(=O)(=O)O)c1 [Sodium 2,5-dimethylbenzenesulfonate]
collision cross section in nitrogen [1]: 138.5 Å²

C=CCc1ccccc1O [2-Allylphenol]
collision cross section in nitrogen [1]: 128.1 Å²

CCOP(=O)(N=C1SCCS1)OCC [Phosfolan]
collision cross section in nitrogen [2]: 150.2 Å² | collision cross section in nitrogen [3]: 150.2 Å² | collision cross section in nitrogen [4]: 165.3 Å²

CCNc1nc(NC(C)C)nc(OC)n1 [Atraton]
collision cross section in nitrogen [3]: 150.5 Å² | collision cross section in nitrogen [4]: 168.1 Å²

Oc1cccc(O)n1 [6-Hydroxy-2-oxopyridinium chloride]
collision cross section in nitrogen [3]: 120.2 Å² | collision cross section in nitrogen [1]: 115 Å²
